Source: patent publication US20050113318A1, “Combination of dehydroepiandrosterone or dehydroepiandrosterone-sulfate with a beta-agonist bronchodilator for treatment of asthma or chronic obstructive pulmonary disease” (priority 2003, published 2005)

What was measured:
[1] = test system: rat peritoneal mast cells; assay: Compound 48/80-induced histamine release from rat peritoneal mast cells; type: cell-based
Protocol: Following incubation, the mixture is cooled to 4° C. then centrifuged at 4500 rpm for 5 min. The supernatant is collected and mixed for 30 min at 4° C. with 5% TCA (trichloroacetic acid) to cause protein precipitation. After centrifugation at 9500×g for 15 min, the supernatant is collected and mixed with 0.25 M HCl. Thereafter, the samples are mixed with 2M NaOH and 0.2% OPT (ortho-phtalaldehyde).and incubated for 30 min at 4° C. in darkness, after which time the reaction is stopped by addition of 0.5 M H2SO4.
The amount of secreted histamine is quantified by measuring the fluorescence intensity at λex=360 nm and λem=450 nm using a spectrofluorimeter (GeminiXS, Molecular Devices). The results are expressed as a percent inhibition of control histamine secretion.

HT-29 SF cells [2] = assay: Reversal of DHEA-mediated growth inhibition; type: cell-based, human; details: 25 μM DHEA, 48 hours; 2 μM MVA, 80 μM SQ, 15 μg/ml CH, RN 30 μM each, DN 20 μM each
HT-29 SF cells [3] = assay: Reversal of DHEA effect on cell cycle; type: cell-based, human; details: 25 μM DHEA, 48 and 72 hours
tissue adenosine = assay: In vivo effect on adenosine levels in various rat tissues; parameters: species or system Fischer 344 rats
Protocol: Folinic acid (50 mg/kg) was administered intraperitoneally once daily for fourteen days. […] Hearts were removed from animals and flash frozen in liquid nitrogen with 10 s of death. Liver and lungs were removed en bloc and flash frozen with 30 s of death. Brain tissue was subsequently dissected.

[4] = Solubility of DHEA-S dihydrate and nebulizer solution properties; type: physicochemical; details: for solubility: range of triplicates
From the text: Inhalation of pure water can produce a cough stimulus. […] The temperature effect is weaker at high NaCl concentrations.

[5] = Short-term solution stability of DHEA-S in 0.12% NaCl; type: physicochemical; details: for appearance / decomposition on storage: 10 mg/mL in 0.12% NaCl
Protocol: Aliquots of this solution are filled into clear glass vials and stored at RT (24-26° C.) and at 40° C. The samples are checked daily for DHEA-S content, DHEA content, and appearance. For each time point, duplicate samples are withdrawn and diluted from each vial. […] The study is stopped on day three. […] The solution should easily be stable for the day of reconstitution in a clinical trial. The following section describes the aerosol properties of this formulation.

[6] = Particle size of DHEA-S powders (laser diffraction, light microscope); type: physicochemical
Protocol: Approximately 1 g sample was passed through the jet mill, once, and approximately 2 g sample were passed through the jet mill twice. […] The resulting solution was sonicated for 3 minutes and appeared fully dispersed. The dispersed solutions were tested on a Malvern Mastersizer X with a small volume sampler (SVS) attachment. One sample of dispersed material was tested 5 times. The median particle size or D (v, 0.5) of unmilled material was 52.56 μm and the % RSD (relative standard deviation) was 7.61 for the 5 values. The D (v, 0.5) for a single pass through the jet mill was 3.90 μm and the % RSD was 1.27, and the D (v, 0.5) from a double pass through the jet mill 3.25 μm and the % RSD was 3.10.
The solution was spray-dried with a B-191 Mini Spray-Drier (Buchi, Flawil, Switzerland) with an inlet temperature of 55° C., outlet temperature of 40° C., at 100% aspirator, at 10% pump, nitrogen flow at 40 mbar and spray flow at 600 units. The spray-dried product was suspended in hexane and Span85 surfactant added to reduce agglomeration. The dispersions were sonicated with cooling for 3-5 minutes for complete dispersion and the dispersed solutions tested on a Malvern Mastersizer X with a Small Volume Sampler (SVS) attachment. […] Visual examination by light microscope of the dispersions of each batch confirmed that spray drying produced small respirable size particles. The mean particle size was 2.4 μm and 2.0 μm for each batch, respectively.
(§1) Surface area is determined using five point BET analyses are performed with nitrogen as the adsorbing gas (P/Po=0.05 to 0.30) using a Micromeritics TriStar surface area analyzer. Particle size distributions are measured by laser diffraction using a Micromeritics Saturn Digisizer where the particles are suspended in mineral oil th sodium dioctyl sodium sulfosuccinate as a dispersing agent. Drug substance water content is measured by Karl Fischer titration (Schott Titroline KF). Pure water is used as the standard and all relative standard deviations for triplicates are less than 1%. Powder is added directly to the titration media.

[7] = Physicochemical testing of DHEA-S dihydrate (BET surface area, Karl Fischer water, impurities)
Protocol: as §1

[8] = Fine particle fraction, single-dose Acu-Breathe inhaler into Andersen impactor; type: physicochemical; details: neat micronized powder, 30 to 75 L/min, FIG. 1
Protocol: These blisters are actuated into the Andersen 8-stage cascade impactor at flow rates ranging from 30 to 75 L/min with a glass twin-impinger throat. Stages 1-5 of the Andersen impactor are rinsed together to obtain an estimate of the fine particle fraction. Pooling the drug collected from multiple stages into one assay make the method much more sensitive. […] Using a carrier with a larger particle size typically improves the aerosol properties of micronized drug substances.
Approximately 25 mg of this powder is filled and sealed in foil blisters and aerosolized using the single-dose device at 60 L/min. The aerosol results for this preliminary powder blend are satisfactory for a respiratory drug delivery system. […] This diameter is smaller than the median diameter measured for micronized DHEA-S.dihydrate by laser diffraction. Irregularly shaped particles can behave aerodynamically as smaller particles since their longest dimension tends to align with the air flow field. Therefore, it is common to see a difference between the two methods. Diffraction measurements are a quality control test for the input material while cascade impaction is a quality control test for the finished product.

[9] = Solid-state stability with and without lactose (DHEA formed, HPLC); type: physicochemical
From the text: These conditions were used to stress the formulation in order to predict its long-term stability results. […] This color change is accompanied by a significant change in the chromatogram as shown in. FIG. 1. The primary degradant is DHEA. […] The materials on accelerated storage become more cohesive with time as evidenced by clumping during sample weighing for chemical analysis. […] This is a considerable disadvantage since lactose is the most commonly used inhalation excipient for dry powder formulations. Continuing with the virtually anhydrous form would mean limiting formulations to neat powder or undertaking more comprehensive safety studies to use a novel excipient.

HT-29 SF cells [10] = assay: DHEA effect on cell growth (Coulter counter); type: cell-based, human; details: 12.5-200 μM, 24-72 hours, FIG. 14
HT-29 SF cells [11] = assay: DHEA effect on cell cycle distribution (flow cytometry); type: cell-based, human
Protocol: Cells were plated at 10^5/60-mm dish in duplicate. […] Cultures were trypsinized following […] and fixed and stained using a modification of a procedure of Bauer et al., Cancer Res. 46, 3173-3178 (1986). Briefly, cells were collected by centrifugation and resuspended in cold phosphate-buffered saline. Cells were fixed in 70% ethanol, washed, and resuspended in phosphate-buffered saline.
After 24, 48, and 72 hours, cells were harvested, fixed in ethanol, and stained with propidium iodide, and the DNA content/cell was determined by flow cytometric analysis. The percentage of cells in G1, S, and G2M phases was calculated using the Cellfit cell cycle analysis program. S phase is marked by a quadrangle for clarity. Representative histograms from duplicate determinations are shown. The experiment was repeated three times.

[12] = rat, daily for two weeks, DHEA, high dose methyltestosterone

`CC(C)(C)NCC(O)c1ccc(O)c(CO)c1` (stereo not drawn) [Salbutamol, (α1-tert-butylaminomothyl)-4-hydroxy-m-xylene-α1,α3-diol] showed an inhibition at 1 pM ([1]; Rattus norvegicus, Mast cell) of -1%, an inhibition at 10 pM ([1]; Rattus norvegicus, Mast cell) of 7% and an inhibition at 0.0001 µM ([1]; Rattus norvegicus, Mast cell) of 2%. The “inhibition of compound 48/80-induced histamine release” value ([1]; Salbutamol 1, 10 and 100 pM alone) was “no or trivial inhibition”.

With `C[C@@](O)(CCO)CC(=O)O` [MVA, mevalonic acid] the “reversal of DHEA-induced growth inhibition by supplement” value (HT-29 SF cells [2]) was “partially overcome” and the “prevention of DHEA-induced S phase depletion by supplement” value (HT-29 SF cells [3]) was “partially prevented this effect in the initial 48 hours but not after 72 hours”.

In the case of `C[C@]12CCC(=O)C=C1CC[C@@H]1[C@@H]2CC[C@@]2(C)[C@H]1CC[C@]2(C)O` [Methyltestosterone], the “Intracellular adenosine, Liver” value (tissue adenosine; rat liver, methyltestosterone 120 mg/kg, mean ± SEM) is reported as 5.1 ± 0.5 nmols/mg protein, the “depletion of adenosine in brain” value (tissue adenosine; [12]) is reported as 34% and the “depletion of adenosine in heart” value (tissue adenosine; [12]) is reported as 22%. For the same compound, the “Intracellular adenosine, Liver” value (tissue adenosine; rat, in vivo) was 16.5 ± 0.9 nmols/mg protein.

In the case of `Nc1nc(=O)c2c([nH]1)NCC(CNc1ccc(C(=O)N[C@@H](CCC(=O)O)C(=O)O)cc1)N2C=O` (mixture of isomers) [Folinic Acid], the “Intracellular adenosine, Brain” value (tissue adenosine; rat brain, once daily 14 days, DHEA 300 mg/kg, methyltestosterone 40 mg/kg by gavage, folinic acid 50 mg/kg i.p., mean ± SEM) is reported as 0.72 ± 0.09 nmols/mg protein, the “Intracellular adenosine, Heart” value (tissue adenosine; rat heart, once daily 14 days, DHEA 300 mg/kg, methyltestosterone 40 mg/kg by gavage, folinic acid 50 mg/kg i.p., mean ± SEM) is reported as 12.4 ± 2.1 nmols/mg protein and the “Intracellular adenosine, Liver” value (tissue adenosine; rat liver, once daily 14 days, DHEA 300 mg/kg, methyltestosterone 40 mg/kg by gavage, folinic acid 50 mg/kg i.p., mean ± SEM) is reported as 16.4 ± 2.4 nmols/mg protein. The “adenosine levels, folinic acid administered alone” value (tissue adenosine; rat, 50 mg/kg i.p. 14 days) was “increase in adenosine levels for all organs studied” and the “effect of coadministration of folinic acid on steroid-mediated adenosine depletion” value (tissue adenosine; rat, with DHEA or methyltestosterone) was “completely abrogated”.

With `CC(C)CCC[C@@H](C)[C@H]1CC[C@H]2[C@@H]3CC=C4C[C@@H](O)CC[C@]4(C)[C@H]3CC[C@]12C` [CH, cholesterol] the “reversal of DHEA-induced growth inhibition by supplement” value (HT-29 SF cells [2]) was “no such effect” and the “prevention of DHEA-induced S phase depletion by supplement” value (HT-29 SF cells [3]) was “very little effect at 48 hours and no effect at 72 hours”.

In the case of `CC(C)=CCC/C(C)=C/CC/C(C)=C/CC/C=C(\C)CC/C=C(\C)CCC=C(C)C` [SQ, squalene], the “reversal of DHEA-induced growth inhibition by supplement” value (HT-29 SF cells [2]) is reported as “no such effect”.

With `C[C@]12CC[C@H](OS(=O)(=O)[O-])CC1=CC[C@@H]1[C@@H]2CC[C@]2(C)C(=O)CC[C@@H]12.[Na+]` [DHEA-S, sodium dehydroepiandrostenone sulfate] the solubility in hexane [4] was “insoluble”, the solubility ([4]; 0.9% NaCl, refrigerated (7-8° C.)) was 1100 to 1300 µg/mL and the Ksp ([4]; 15° C., interpolated) was roughly 1316 mM^2. The “equilibrium constant Ksp” value ([4]; refrigerated (7-8° C.)) was 665 mM^2, the “equilibrium constant Ksp” value ([4]; room temperature (24-25° C.)) was 2236 mM^2 and the solubility ([4]; ~25° C., 0% NaCl, excess DHEA-S dihydrate) was 16500 to 17400 µg/mL. The “solution stability of nebulizer formulation” value ([5]; 7.5 mg/mL in 0.12% NaCl, RT) was “stable for at least one day at RT”, the “appearance / decomposition on storage” value ([5]; 40° C.) was “became cloudy after two days of storage” and the “appearance / decomposition on storage” value ([5]; RT (24-26° C.)) was “slight precipitate is observed on the third day”.

With `CC12CCC3C(CC=C4CC(OS(=O)(=O)[O-])CCC43C)C1CCC2=O.[Na+]` (centres unmarked) [DHEA-S dihydrate] the “Particle size (D50%)” value ([6]; Bulk, before micronization) was 31 microns, the “Particle size (D50%)” value ([6]; Micronized) was 3.7 microns and the Impurities ([7]; Bulk) was “No significant peaks”. The Water ([7]; Bulk) was 8.5 % w/w, the Impurities ([7]; Micronized) was “No significant peaks” and the Surface area ([7]; Micronized) was 4.9 m^2/g. The Water ([7]; Micronized) was 8.4 % w/w, the “fine particle fraction as a function of flow rate” value [8] was “higher fine particle fraction than the virtually anhydrous material” and the DHEA % formed ([9]; 50° C., 1 week) was 0.216%. For the same compound, the DHEA % formed ([9]; 50° C., 3 weeks) was 0.317%, the DHEA % formed ([9]; 50° C., 4 weeks) was 0.374% and the DHEA % formed ([9]; Control: neat, sealed vial, 25° C., 4 weeks) was 0.218%. The DHEA % formed ([9]; Control: neat, sealed vial, 25° C., first time column (head empty, time 0)) was 0.213%, the “water content, starting value” ([9]; before storage) was 8.8% and the “water content after accelerated storage” value ([9]; one week at 50° C.) was 8.66%.

With `C[C@]12CC[C@H](O)CC1=CC[C@@H]1[C@@H]2CC[C@]2(C)C(=O)CC[C@@H]12` [DHEA, 3β-hydroxyandrost-5-en-17-one] the inhibition of growth (HT-29 SF cells [10]) was “time- and dose-dependent inhibition of growth”, the cell cycle distribution (HT-29 SF cells [11]; 200 μM DHEA, 24 hours) was “increase in the percentage of cells in G1 and a decreased proportion of cells in S phase” and the cell cycle block (HT-29 SF cells [11]; 25-200 μM, 24-72 hours, FIG. 15) was “G1 block”. For the same compound, the cell cycle distribution (HT-29 SF cells [11]; 25 or 50 μM DHEA, 72 hours) was “percentage of cells in G1 phase was increased” and the cell cycle distribution (HT-29 SF cells [11]; 25 or 50 μM DHEA, initial 24 hours) was “unchanged”.
